From patent US20100028298A1 (priority 2006, published 2010) come the findings set out here.

Assay [1] relates to Herpes simplex virus strain 1 (HSV-1, dsDNA). The assay can be described thus: Antiviral effect on HSV-1, cytopathic effect on Vero cells. Format: cell-based. The following applies: Vero cells infected with 10^4 PFU/ml HSV-1, different concentrations of vioprolide A alone, FIG. 6. (In general: Cytopathic effects are the visible damage that an infection or toxin causes in cultured cells.)

Assay [2] deals with interferon beta activity in MXRage cells. The assay can be described thus: Cell-based virus-free type I interferon activity test, Mx-RAGE fibroblasts with eGFP reporter, flow cytometry, with interferon beta. Also noted: species or system murine. To be noted: interferon beta standard curve, vioprolide A 50 ng/ml, FIG. 4 right panel. On the technique in general: Flow cytometry measures light scatter and fluorescence of single cells or particles in a stream.

For assay [3], the system named is human cervical carcinoma derived cell line WISH. The assay can be described thus: Antiproliferative activity on WISH cells. Format: cell-based. The following applies: in the presence of rhIFN-α2b, FIG. 7. The procedure:
FIG. 7: The antiproliferative effect of vioprolide A. The proliferation of WISH cells was tested at different concentrations of vioprolide A alone (grey) and in the present of IFN-α2b (black).
Further, the antiproliferative effect of vioprolide A has been determined. Using standard assays, the antiproliferative activity was evaluated with human cervical carcinoma derived cell line WISH.

Assay [4] concerns interferon alpha activity in MXRage cells. The assay can be described thus: Cell-based virus-free type I interferon activity test, Mx-RAGE fibroblasts with eGFP reporter, flow cytometry, with interferon alpha. Also noted: species or system murine.
For assay [5], the system named is Vesicular stomalitis virus (VSV, ssRNA negative). It counts as cell-based. The following applies: MDBK cells, rhIFN-α2b alone and with 31 and 167 ng/ml vioprolide A, FIG. 5.

Numbered stars: 1 amine (or outer) side, 2 acyl side, 3 side chain; on linkers, the order of the positions; unused ones are H or OH. Bridge positions count the residues as written; N and C are the ends. Square brackets hold non-standard residues; d marks the D form. Peptide text beside a SMILES is read from it. X1 = CC1CC(C2=NC(C(=O)[*:2])CS2)N1[*:1]; NMeV = CN[CH](C(=O)O)C(C)C; X2 = O=C(C(O)CO[*:2])[*:1]; Pip = O=C(O)[CH]1CCCCN1; Dhb = C/C=C(\N)C(=O)O Where only a bound is given, the exact number is not on record here.

Take `C/C=C1\NC(=O)C2CSC(=N2)C2CC(C)N2C(=O)C(CC(C)C)NC(=O)C(C)NC(=O)C(O)COC(=O)C(C(C)C)N(C)C(=O)C(C(C)O)NC(=O)C2CCCCN2C1=O` (stereo not shown) [vioprolide A] (AL[X1][Dhb][Pip]T[NMeV]; linker N-C via X2; configuration not given here): the “anti-viral activity on HSV-1 (cytopathic effect)” value in assay [1] was “anti-viral activity”. The “increase of GFP positive cells” value in assay [2] is given as “remarkable increase”; in assay [4] (interferon alpha standard curve, vioprolide A 50 ng/ml, FIG. 4 left panel) it was “remarkable increase”. Moreover, in assay [3], the “effect on cell growth inhibition” value was “additive effect”. In assay [4] (vioprolide A 50 ng/ml, FIG. 4 left panel), the “reduction of the amount of interferon alpha to obtain the same percent of GFP positive cells” value is “about 10 fold”. For the same compound, the “increase of GFP positive cells with vioprolide plus interferon type I compared to interferon type I alone” value in assay [4] (vioprolide A 0.2 to 400 ng/ml, serial two-fold dilutions, FIG. 3) is not above 4 fold. In addition, the “anti-viral activity of IFN on VSV (cytopathic effect)” value in assay [5] is “able to enhance the anti-viral activity of IFN on VSV”.
